Reference: patent US9101559B2, “Leukemic cell CNS infiltration controlled by notch-induced chemotaxis” (New York University, priority 2009, dated 2015)

Legend:
[1] = system: activated N1-IC protein; test: Western blot of activated N1-IC protein in CEM cells after γ-secretase inhibitor treatment; assay type: cell-based, human; conditions: CEM cells (T-ALL cell line), 1 nM, three days
Procedure: (§1) FIGS. 9A-9D show γ-secretase-inhibitor mediated suppression of CCR7 expression. CEM cells (T-ALL cell line) were treated with either Compound E (Comp E) (1 nM) or DBZ (1 nM) for three days. FIG. 9A is a panel of western blots showing the disappearance of the activated N1-IC protein in CEM cells following γ-secretase inhibitor (GSI) treatment. β-actin immunoreactivity is shown as a loading control. […] Error bars define standard deviation from mean.

[2] = system: human CCR7; test: CCR7 expression in T-ALL cell lines after GSI treatment; assay type: cell-based; conditions: for transcription of human CCR7: CEM cells (T-ALL cell line), 1 nM, three days; for CCR7 mRNA and protein expression: T-ALL cell lines, addition of γ-secretase inhibitors
Procedure: as §1
(§2) RNA was isolated using RNeasy Plus Mini Kit (Qiagen, Valencia, Calif.) columns and used to synthesize cDNA with the SuperScript First-Strand Kit (Invitrogen, Carlsbad, Calif.). Real time PCR was performed using iQ SYBR Green Supermix and an iCycler (Bio-Rad, Hercules, Calif.). Relative expression was determined from cycle threshold (CT) values and was normalized using β-actin as an internal control.
To further correlate Notch 1 activation and CCR7 expression, T-ALL cell lines harboring Notch 1 activating mutations and primary T-ALL samples were analyzed. Strikingly, surface CCR7 was expressed in 80% (4/5) of T-ALL lines (FIG. 8A) and in 73% (8/11) of peripheral blood from primary T-ALL samples (FIG. 8B; #114, #358, and #479). […] To obtain a preliminary estimate of the importance of CCR7 expression in CNS infiltration, two human T-ALL lines were selected (FIG. 8A), one expressing CCR7 (CEM/CCR7^pos) and one deficient in CCR7 expression (DND41/CCR7^neg). Both cell lines were infected using a luciferase-expressing lentivirus. To study disease induction and progression, the cells were transplanted into lymphoid Rag2−/− γc−/− host animals. Transplantation of an identical number of leukemia cells led to distinct survival patterns as host animals which received CEM/CCR7^pos cells succumbed to the leukemic disease earlier that the ones receiving the DND41/CCR7^neg cells (FIG. 3A). Using live animal bioluminescent imaging, a higher tumor load in mice that received the […] cell line was observed (FIG. 3B). Most importantly, the brain and spinal cord of CEM/CCR7^pos-transplanted hosts (but not the DND41/CCR7^neg) were infiltrated by T-ALL cells (FIG. 3C). Further histopathological analysis confirmed the localization of the infiltrating cells in leptomeningeal spaces (FIG. 3D).

[3] = system: Hes1; test: Transcription of Notch target gene Hes1 in CEM cells after GSI treatment; assay type: cell-based, human; conditions: CEM cells (T-ALL cell line), 1 nM, three days
Procedure: as §1, §2

[4] = system: Dtx1; test: Transcription of Notch target gene Dtx1 in CEM cells after GSI treatment; assay type: cell-based, human; conditions: CEM cells (T-ALL cell line), 1 nM, three days
Procedure: as §1, §2

| SMILES | activated N1-IC protein (western blot) [1] | transcription of human CCR7 [2] | CCR7 mRNA and protein expression [2] | transcription of Hes1 [3] | transcription of Dtx1 [4] |
| --- | --- | --- | --- | --- | --- |
| C[C@H](NC(=O)Cc1cc(F)cc(F)c1)C(=O)N[C@@H]1C(=O)N(C)c2ccccc2-c2ccccc21 [DBZ] | disappearance | suppressed | significant down-regulation | efficiently suppressed | efficiently suppressed |
| C[C@H](NC(=O)Cc1cc(F)cc(F)c1)C(=O)N[C@H]1N=C(c2ccccc2)c2ccccc2N(C)C1=O [Compound E] | disappearance | suppressed | significant down-regulation | efficiently suppressed | efficiently suppressed |
